Key:
Type in all cases: biochemical
CPB2.8ΔCTE = molecular target: T1, CPB2.8ΔCTE (Leishmania mexicana, UniProt P36400); assay: Leishmania mexicana cysteine protease B (CPB) peptidase activity assay (Ki); conditions: Ki, inhibitors of Leismania mexicana CPB protease
T1 construct: Wild-type recombinant CPB without the C-terminal extention (i.e. CPB2.8ΔCTE); Dr. Jeremy Mottram (Wellcome Centre for Molecular Parasitology, University of Glasgow)
Summary of the method: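 Recombinant CPB2.8ΔCTE (0.25 nM) was assayed in 100 mM sodium acetate pH 5.5 with 1 mM EDTA, 200 mM NaCl and 10 mM DTT at 25 °C, DMSO <1%, enzyme added to start. Rates were taken from continuous fluorescence slopes; apparent Ki was fitted assuming reversible, pure-competitive inhibition.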

Bovine cathepsin S = molecular target: T2, Bovine cathepsin S (Bos taurus, UniProt P25326); assay: Cathepsin S peptidase activity assay, bovine enzyme (Ki); conditions: species of cathepsin S not given; read-out: Ki, inhibitors of cathepsin S
T2 construct: purchased CN Biosciences
Procedure: Unless otherwise stated, all general chemicals and biochemicals were purchased from either the Sigma Chemical Company, Poole, Dorset, U.K or from Fisher Scientific UK, Loughborough, Leicestershire, U.K. Absorbance assays were carried out in flat-bottomed 96-well plates (Spectra; Greiner Bio-One Ltd., Stonehouse, Gloucestershire, U.K.) using a SpectraMax PLUS384 plate reader (Molecular Devices, Crawley, U.K.). Fluorescence high throughput assays were carried out in either 384-well microtitre plates (Corning Costar 3705 plates, Fisher Scientific) or 96-well ‘U’ bottomed Microfluor W1 microtitre plates (Thermo Labsystems, Ashford, Middlesex, U.K.). Fluorescence assays were monitored using a SpectraMax Gemini fluorescence plate reader (Molecular Devices). For substrates employing either a 7-amino-4-methylcoumarin (AMC) or a 7-amino-4-trifluoromethylcoumarin (AFC) fluorophore, assays were monitored at an excitation wavelength of 365 nm and an emission wavelength of 450 nm and the fluorescence plate reader calibrated with AMC. For substrates employing a 3-amino-benzoyl (Abz) fluorophore, assays were monitored at an excitation wavelength of 310 nm and an emission wavelength of 445 nm; the fluorescence plate reader calibrated with 3-amino-benzamide (Fluka). Unless otherwise indicated, all the peptidase substrates were purchased from Bachem UK, St Helens, Merseyside, UK. Substrates utilizing fluorescence resonance energy transfer methodology (i.e. FRET-based substrates) were synthesized at Incenta Limited using published methods (Atherton & Sheppard, Solid Phase Peptide Synthesis, IRL Press, Oxford, U.K, 1989) and employed Abz (2-aminobenzoyl) as the fluorescence donor and 3-nitro-tyrosine [Tyr(NO2)] as the fluorescence quencher (Meldal, M. and Breddam, K., Anal. Biochem, 195, 141-147, 1991). Hydroxyethylpiperazine ethanesulfonate (HEPES), tris-hydroxylmethyl aminomethane (tris) base, bis-tris-propane and all the biological detergents (e.g. CHAPS, zwittergents, etc.) were purchased from CN Biosciences UK, Beeston, Nottinghamshire, U.K. Glycerol was purchased from Amersham Pharmacia Biotech, Little Chalfont, Buckinghamshire, U.K. Stock solutions of substrate or inhibitor were made up to 10 mM in 100% dimethylsulfoxide (DMSO) (Rathburns, Glasgow, U.K.) and diluted as appropriately required. In all cases the DMSO concentration in the assays was maintained at less than 1% (vol./vol.).
Assay protocols were based on literature precedent (Table 4; Barrett, A. J., Rawlings, N. D. and Woessner, J. F., 1998, Handbook of Proteolytic Enzymes, Academic Press, London and references therein) and modified as required to suit local assay protocols. Enzyme was added as required to initiate the reaction and the activity, as judged by the change in fluorescence upon conversion of substrate to product, was monitored over time. All assays were carried out at 25±1° C.
Bovine cathepsin S, human cathepsin L, human cathepsin H and human cathepsin B were obtained from CN Biosciences. Recombinant human cathepsin S, human cathepsin K and human cathepsin X were obtained from Dr. Boris Turk (Josef Stefan Institute, Ljubljana, Slovenia). Unless otherwise stated, all peptidase activity assays were carried out in 10 mM bis-tris-propane (BTP), pH 6.5 containing 1 mM EDTA, 5 mM 2-mercaptoethanol and 1 mM CaCl2. Human cathepsin H activity assays were carried out in 10 mM BTP pH 6.5, 142 mM NaCl2, 1 mM CaCl2, 1 mM EDTA, 1 mM DTT, 0.035 mM Zwittergent 3-16. Human cathepsin K assays were carried out in 100 mM sodium acetate; pH 5.5 containing 20 mM L-cysteine and 1 mM EDTA (Bossard, M. J., et. al., J. Biol. Chem., 21, 12517-12524, 1996). Human cathepsin X assays were carried out in 100 mM sodium acetate; pH 5.5 containing 20 mM L-cysteine; 0.05% (w/v) Brij 35 and 1 mM EDTA (Santamaria, I., et. al., J. Biol. Chem., 273, 16816-16823, 1998; Klemencic, J, et al., Eur. J. Biochem., 267, 5404-5412, 2000).

Wild-type cruzipain = Wild-type cruzipain (Trypanosoma cruzi, UniProt P25779); assay: Trypanosoma cruzi cruzipain peptidase activity assay (Ki); conditions: read-out: Ki, inhibitors of cruzain and cruzipains
Summary of the method: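 Native cruzipain from T. cruzi Dm28 epimastigotes, 2.5 nM, in 100 mM sodium phosphate pH 6.75 with 1 mM EDTA and 10 mM L-cysteine, 25 °C, DMSO <1%. Rates taken from continuous fluorogenic substrate read; Ki by regression assuming reversible pure-competitive inhibition.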

human cathepsin L = molecular target: T3, human cathepsin L (Homo sapiens, UniProt P07711); assay: Cathepsin L peptidase activity assay (Ki); conditions: read-out: Ki, inhibitors of cathepsin L
T3 construct: purchased CN Biosciences
Summary of the method: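 Human cathepsin L at 1 nM with Ac-Phe-Arg-AMC at its KM^app (~20 μM) in 10 mM bis-tris-propane pH 6.5, 1 mM EDTA, 5 mM 2-mercaptoethanol, 1 mM CaCl2, DMSO <1%, 25±1° C. Reaction enzyme-initiated; AMC fluorescence (ex 365/em 450 nm) monitored over time.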

Measured: Ki

T1 sequence (P36400 126-343, stated change not applied): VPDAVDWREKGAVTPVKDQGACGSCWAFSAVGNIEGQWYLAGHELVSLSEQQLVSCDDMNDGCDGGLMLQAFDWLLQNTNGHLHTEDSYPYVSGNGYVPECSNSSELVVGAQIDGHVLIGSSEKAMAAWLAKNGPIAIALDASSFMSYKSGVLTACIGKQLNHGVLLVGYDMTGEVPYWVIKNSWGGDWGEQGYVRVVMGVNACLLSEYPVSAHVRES
T3 sequence (P07711 114-333): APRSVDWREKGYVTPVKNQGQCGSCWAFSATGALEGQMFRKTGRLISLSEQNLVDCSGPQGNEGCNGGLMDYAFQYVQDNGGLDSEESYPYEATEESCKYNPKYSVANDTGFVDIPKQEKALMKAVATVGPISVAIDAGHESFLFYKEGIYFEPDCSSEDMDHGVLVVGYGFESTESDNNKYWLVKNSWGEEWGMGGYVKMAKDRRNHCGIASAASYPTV
T2 sequence (P25326 115-331): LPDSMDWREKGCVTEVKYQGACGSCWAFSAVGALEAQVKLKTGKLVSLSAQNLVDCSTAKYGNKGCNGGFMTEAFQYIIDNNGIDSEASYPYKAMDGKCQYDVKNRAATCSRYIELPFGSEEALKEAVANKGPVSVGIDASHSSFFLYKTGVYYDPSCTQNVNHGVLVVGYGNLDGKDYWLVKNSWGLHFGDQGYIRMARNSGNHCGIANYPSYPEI
Chain of Wild-type cruzipain (P25779 whole entry): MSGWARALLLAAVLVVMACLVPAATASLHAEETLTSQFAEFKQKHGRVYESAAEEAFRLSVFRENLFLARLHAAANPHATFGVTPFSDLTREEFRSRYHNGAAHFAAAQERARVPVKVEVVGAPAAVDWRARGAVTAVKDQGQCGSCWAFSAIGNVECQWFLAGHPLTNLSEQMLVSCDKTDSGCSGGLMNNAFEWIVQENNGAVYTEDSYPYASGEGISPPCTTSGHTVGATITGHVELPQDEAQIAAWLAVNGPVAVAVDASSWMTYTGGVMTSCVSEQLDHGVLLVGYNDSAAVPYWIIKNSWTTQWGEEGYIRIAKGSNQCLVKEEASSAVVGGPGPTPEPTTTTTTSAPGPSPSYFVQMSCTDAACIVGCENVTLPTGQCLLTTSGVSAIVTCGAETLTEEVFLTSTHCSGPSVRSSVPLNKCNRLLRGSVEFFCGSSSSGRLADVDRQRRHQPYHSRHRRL

CC(C)C[C@H](NC(=O)c1ccc2[nH]ccc2c1)C(=O)N1CC[C@@H]2[C@H]1C(=O)CN2C(=O)c1ccccc1 [Example 89, (3aR,6aS)-1H-Indole-5-carboxylic acid [(1S)-1-(4-benzoyl-6-oxo-hexahydro-pyrrolo[3,2-b]pyrrole-1-carbonyl)-3-methyl-butyl]-amide]
< 5 µM: all assays above

CC(C)C[C@H](NC(=O)c1ccc(C(C)C)cc1)C(=O)N1CC[C@@H]2[C@H]1C(=O)CN2C(=O)c1ccccc1 [Example 172, (3aR,6aS)-N-[(1S)-1-(4-Benzoyl-6-oxo-hexahydro-pyrrolo[3,2-b]pyrrole-1-carbonyl)-3-methyl-butyl]-4-isopropyl-benzamide]
< 5 µM: all assays above

CC(C)C[C@H](NC(=O)c1ccc(N(C)C)cc1)C(=O)N1CC[C@@H]2[C@H]1C(=O)CN2C(=O)c1ccsc1 [Example 164, (3aR,6aS)-4-Dimethylamino-N-{(1S)-3-methyl-1-[6-oxo-4-(thiophene-3-carbonyl)-hexahydro-pyrrolo[3,2-b]pyrrole-1-carbonyl]-butyl}-benzamide]
< 5 µM: all assays above

Cc1c(C(=O)N[C@@H](CC(C)C)C(=O)N2CC[C@@H]3[C@H]2C(=O)CN3C(=O)c2cccnc2)oc2ccccc12 [Example 17, (3aR,6aS)-3-Methyl-benzofuran-2-carboxylic acid {(1S)-3-methyl-1-[6-oxo-4-(pyridine-3-carbonyl)-hexahydro-pyrrolo[3,2-b]pyrrole-1-carbonyl]-butyl}-amide]
< 5 µM: all assays above

CC(C)C[C@H](NC(=O)c1ccc(N(C)C)cc1)C(=O)N1CC[C@@H]2[C@H]1C(=O)CN2C(=O)[C@@H]1CCCN1C(=O)OCc1ccccc1 [Example 154, (3aS,6aR)-(2S)-2-{4-[(2S)-2-(4-Dimethylamino-benzoylamino)-4-methyl-pentanoyl]-3-oxo-hexahydro-pyrrolo[3,2-b]pyrrole-1-carbonyl}-pyrrolidine-1-carboxylic acid benzyl ester]
< 5 µM: all assays above

CC(C)C[C@H](NC(=O)c1ccccc1)C(=O)N1CC[C@@H]2[C@H]1C(=O)CN2C(=O)c1ccccc1 [Example 174, (3aR,6aS)-N-[(1S)-1-(4-Benzoyl-6-oxo-hexahydro-pyrrolo[3,2-b]pyrrole-1-carbonyl)-3-methyl-butyl]-benzamide]
< 5 µM: all assays above

CC(C)C[C@H](NC(=O)c1ccc(N(C)C)cc1)C(=O)N1CC[C@@H]2[C@H]1C(=O)CN2C(=O)c1ccc2[nH]ccc2c1 [Example 98, (3aR,6aS)-4-Dimethylamino-N-{(1S)-1-[4-(1H-indole-5-carbonyl)-6-oxo-hexahydro-pyrrolo[3,2-b]pyrrole-1-carbonyl]-3-methyl-butyl}-benzamide]
< 5 µM: all assays above

CCc1ccc(C(=O)N[C@@H](CC(C)C)C(=O)N2CC[C@@H]3[C@H]2C(=O)CN3C(=O)c2ccccc2)cc1 [Example 171, (3aR,6aS)-N-[(1S)-1-(4-Benzoyl-6-oxo-hexahydro-pyrrolo[3,2-b]pyrrole-1-carbonyl)-3-methyl-butyl]-4-ethyl-benzamide]
< 5 µM: all assays above

CC(C)C[C@H](NC(=O)c1ccc(CN)cc1)C(=O)N1CC[C@@H]2[C@H]1C(=O)CN2C(=O)c1ccccc1 [Example 93, (3aR,6aS)-4-Aminomethyl-N-[(1S)-1-(4-benzoyl-6-oxo-hexahydro-pyrrolo[3,2-b]pyrrole-1-carbonyl)-3-methyl-butyl]-benzamide]
< 5 µM: all assays above

CC(C)C[C@H](NC(=O)c1ccc2cc[nH]c2c1)C(=O)N1CC[C@@H]2[C@H]1C(=O)CN2C(=O)c1ccccc1 [Example 88, (3aR,6aS)-1H-Indole-6-carboxylic acid [(1S)-1-(4-benzoyl-6-oxo-hexahydro-pyrrolo[3,2-b]pyrrole-1-carbonyl)-3-methyl-butyl]-amide]
< 5 µM: all assays above

CC(C)C[C@H](NC(=O)OCc1ccccc1)C(=O)N1CC(=O)[C@@H]2[C@H]1CCN2C(=O)[C@H](CC(C)C)NC(=O)c1ccc(N(C)C)cc1 [Example 37, (3aS,6aR)-((1S)-1-{4-[(2S)-2-(4-Dimethylamino-benzoylamino)-4-methyl-pentanoyl]-3-oxo-hexahydro-pyrrolo[3,2-b]pyrrole-1-carbonyl}-3-methyl-butyl)-carbamic acid benzyl ester]
< 5 µM: all assays above

CC(C)C[C@H](NC(=O)c1ccc(N2CCOCC2)cc1)C(=O)N1CC[C@@H]2[C@H]1C(=O)CN2C(=O)c1ccccc1 [Example 85, (3aR,6aS)-N-[(1S)-1-(4-Benzoyl-6-oxo-hexahydro-pyrrolo[3,2-b]pyrrole-1-carbonyl)-3-methyl-butyl]-4-morpholin-4-yl-benzamide]
< 5 µM: all assays above

Reference: patent US20060100431A1, “Biologically active compounds” (Amura Therapeutics Limited, priority 2002, published 2006)
